Reference: patent publication US12268739B2, “Use of toll-like receptor 2 (TLR-2) agonist for modulating human immune response” (Children's Medical Center Corporation, priority 2018, dated 2025)

What was measured:
human TLR8 = molecular target: T1, human TLR8 (Homo sapiens, UniProt Q9NR97); assay: HEK293 assay for human TLR8 selectivity (NF-κB/SEAP); assay type: cell-based; settings: selectivity counter-assay
T1 construct: host or cells: HEK293 cells with an NF-kB-responsive SEAP reporter gene
T1 sequence (Q9NR97 27-1041): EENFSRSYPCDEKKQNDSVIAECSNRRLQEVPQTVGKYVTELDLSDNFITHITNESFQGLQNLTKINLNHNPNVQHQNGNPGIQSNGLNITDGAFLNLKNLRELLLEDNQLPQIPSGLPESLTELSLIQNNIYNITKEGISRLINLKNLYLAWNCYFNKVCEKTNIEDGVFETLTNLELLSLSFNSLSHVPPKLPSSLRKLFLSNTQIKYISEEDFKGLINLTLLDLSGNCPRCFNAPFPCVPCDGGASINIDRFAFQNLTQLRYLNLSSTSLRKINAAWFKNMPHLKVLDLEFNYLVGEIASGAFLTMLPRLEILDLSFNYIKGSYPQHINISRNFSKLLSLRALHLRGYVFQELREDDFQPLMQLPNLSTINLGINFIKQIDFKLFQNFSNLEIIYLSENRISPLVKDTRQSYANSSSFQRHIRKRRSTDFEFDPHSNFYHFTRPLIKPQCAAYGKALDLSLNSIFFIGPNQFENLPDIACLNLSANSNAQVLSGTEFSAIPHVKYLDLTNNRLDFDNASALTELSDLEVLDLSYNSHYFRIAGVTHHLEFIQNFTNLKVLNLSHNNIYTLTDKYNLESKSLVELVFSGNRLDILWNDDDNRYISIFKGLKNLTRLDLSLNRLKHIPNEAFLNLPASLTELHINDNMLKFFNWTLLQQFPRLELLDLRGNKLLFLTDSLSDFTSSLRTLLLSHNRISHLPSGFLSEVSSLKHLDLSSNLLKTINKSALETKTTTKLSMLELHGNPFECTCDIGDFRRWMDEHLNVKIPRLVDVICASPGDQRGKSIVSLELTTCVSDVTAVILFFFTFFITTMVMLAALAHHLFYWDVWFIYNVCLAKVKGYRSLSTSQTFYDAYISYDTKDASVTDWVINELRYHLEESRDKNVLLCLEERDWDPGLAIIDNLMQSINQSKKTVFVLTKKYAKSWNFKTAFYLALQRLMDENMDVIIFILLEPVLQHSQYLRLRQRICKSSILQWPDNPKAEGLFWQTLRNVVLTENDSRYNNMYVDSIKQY
Protocol: HEK293 assay for human TLR2 and TLR8 selectivity: Human embryonic kidney (HEK) 293 cells expressing human TLR2 or TLR8 with an NF-κB-responsive secreted embryonic alkaline phosphatase (SEAP) reporter gene were obtained from Invivogen (San Diego, CA). Cells were maintained in RPMI or DMEM with 10% heat inactivated-FBS and selection antibiotics per the manufacturer's instructions. Cells were plated at 5×10^5 cells/96-well and stimulated with indicated agonist(s) for 24 hours. Supernatants were harvested and analyzed for NF-κB/SEAP activation using the QuantiBlue kit (Invivogen). Values are expressed as fold change in OD650 over vehicle-only treated samples.

THP1-NF-κB cells = assay: THP1-NF-κB cell stimulation for 24 hours, secreted luciferase luminescence; assay type: cell-based, human
Protocol: THP-1 Cell Line and Culture Conditions. The THP1-Lucia™ cell line was obtained from Invivogen (San Diego, CA). THP1-Lucia cells, which are human monocytic cells derived from the blood of a child with leukemia, contain an NF-kB-inducible Luc reporter construct. This allows NF-kB activation to be measured by quantifying the luminescence from the secreted luciferase enzyme. THP1-Lucia cells were cultured in RPMI 1640 supplemented with 10% non-heat inactivated fetal bovine serum (FBS), 10 mM HEPES, 1.0 mM sodium pyruvate, 50 ug/ml Pen-Strep, and 100 ug/mL Normocin™. Once cultured, the cells were stored in a 37° C. incubator with 5% CO2 and a humidified atmosphere. Cells were passaged every 2-3 days and not allowed to exceed a concentration of 2.0×10^6 cells/ml media.
PBMCs were isolated from blood using a Ficoll density gradient. PBMCs either used fresh or were stored at 5×10^7 cells per vial in 1 mL RPMI containing 20% autologous plasma and 10% DMSO at −80° C. until use. Stimulation plates were prepared by transferring 0.66 μl of DMSO-dissolved compounds (30 or 7.5 mM) to each well of a round bottom 96-well plate. PBMCs isolated from human adult donors or THP1-NF-κB cells were resuspended at a concentration of 10^5 cells/200 μl of RPMI supplemented with 10% of platelet-poor plasma or THP1 culture medium, respectively. 200 μl of the cell suspension were transferred to each well resulting in a final compound concentration of 100 or 25 μM. After 24 hours of incubation (37° C., 5% CO2), plates were spun down (500×g, room temperature, 5 minutes) and supernatants were harvested for further analysis.

human adult PBMCs = assay: Cytokine production by stimulated human adult PBMCs (ELISA / multiplex); assay type: cell-based
Protocol: ELISAs and Multiplex-Analyte Assays. Supernatants derived from human PBMCs stimulations were assayed by ELISA for TNF and IL-6 (ThermoFisher Scientific; Waltham, MA, USA). Cytokine and chemokine expression profiles (e.g., IFNγ, IL-9, IL-10, IL-12 (p70), IL-13, IL-1β, IL-23, IL-27, IL-28A, IL-33, IL-6, MIP-3α/CCL20, and TNF) in cell culture supernatants were measured using a customized Milliplex® Human Th17 Magnetic Bead Panel according to the manufacturer's instructions (Millipore, Chicago, IL, USA). Assays were read and analyzed on the Luminex® 100/200TM System and xPOTENT® software (Luminex, Austin, TX). A minimum threshold was set at the minimum detectable concentration for each individual assay, defined as three standard deviations above the mean background.
PBMCs were isolated from blood using a Ficoll density gradient. PBMCs either used fresh or were stored at 5×10^7 cells per vial in 1 mL RPMI containing 20% autologous plasma and 10% DMSO at −80° C. until use. […] PBMCs isolated from human adult donors or THP1-NF-κB cells were resuspended at a concentration of 10^5 cells/200 μl of RPMI supplemented with 10% of platelet-poor plasma or THP1 culture medium, respectively. […] After 24 hours of incubation (37° C., 5% CO2), plates were spun down (500×g, room temperature, 5 minutes) and supernatants were harvested for further analysis.

[1] = human adult PBMCs, 24 hours, compounds at 100 µM (FIG. 7), ELISA, median

CNC(=O)c1c(NC(=O)c2ccc(S(=O)(=O)N(C)C)cc2)sc2c1CCC2 [Compound 80]
TLR8 induction in HEK TLR8 cells (SEAP) (human TLR8): without induction of TLR8 | Activation of THP1 cells (THP1-NF-κB cells; 384 and 96 well assay): induced activation of THP1 cells | THP1 cells (relative luminescence units, N = 4) Comp at 25 uM (THP1-NF-κB cells; NF-κB-dependent luminescence, compound at 25 uM, 24 hours): 8280 relative luminescence units | THP1 cells (relative luminescence units, N = 4) Comp at 100 uM (THP1-NF-κB cells; NF-κB-dependent luminescence, compound at 100 uM, 24 hours): 12174 relative luminescence units | Activation of human adult PBMCs (human adult PBMCs; 384 and 96 well assay): induced activation | Cytokine production (TNF and IL-6) from human adult PBMCs (human adult PBMCs; 24 hours, 100 μM, ELISA): induces cytokine production | Adult PBMCs (median ng/ml) IL-6 (N = 7) (human adult PBMCs; [1]): 1.868 ng/mL | Adult PBMCs (median ng/ml) TNFa (N = 13) (human adult PBMCs; [1]): 0.1958 ng/mL
